Laboratory results reported in USRE47689E1, “Compounds for treating spinal muscular atrophy” (PTC Therapeutics, Inc., priority 2011, dated 2019).
Like-named read-outs stand apart in the source and are kept apart here.

Assays:
[1] = system: SMN2 minigene (full length SMN2 minigene mRNA containing SMN2 exon 7); experiment: SMN2 minigene mRNA splicing RT-qPCR assay in cultured cells; assay type: cell-based, human; conditions: Homo sapiens, HEK293-H, read-out: EC1.5x for production of full length SMN2 mRNA
How it was run: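 Read-out: full-length (exon 7-included) SMN2 minigene mRNA by multiplex RT-qPCR with GAPDH, efficiency-corrected (1+E)^−Ct, GAPDH-normalized and divided by vehicle. Stably transfected HEK293H cells, 24 h compound exposure, duplicates per concentration. Value is EC1.5x, reported as star ranges.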

Smn protein = Smn protein assay in cultured cells (SMN HTRF); assay type: cell-based, human; conditions: 48 hours; for EC1.5x (concentration giving 1.5-fold Smn protein increase): SMA Type 1 patient fibroblast cells (GM03813), 7-point concentration curve, SMN HTRF, concentration producing 1.5 times Smn protein vs DMSO vehicle control, read-out: EC1.5x for Smn protein expression; for maximum fold (Fold) increase of Smn protein: SMA patient fibroblast cells, 7-point concentration data, fold increase relative to vehicle control (SMN HTRF)
How it was run: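 Lysates in RIPA with protease inhibitors are incubated overnight at room temperature with HTRF anti-SMN antibodies. EC1.5x is derived from fold increase in ΔF over vehicle.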

[2] = HEK293H cells stably transfected with SMN2-A minigene, 24 hours, 7-point concentration curve, 1.5-fold relative to vehicle-treated cells

| melting point | SMILES | EC (1.5-fold) [1, 2] [µM] | EC1.5x (concentration giving 1.5-fold Smn protein increase) (Smn protein) [nM] | maximum fold (Fold) increase of Smn protein (Smn protein) | EC (1.5-fold) ([1]; 24 h) [µM] |
| --- | --- | --- | --- | --- | --- |
| 190 to 196 °C | Cc1cn2cc(-c3cc4ccc(O[C@@H]5CCN(CCO)C5)cc4oc3=O)nc2c(C)n1 [Compound 892, 3-(6,8-dimethylimidazo[1,2-a]pyrazin-2-yl)-7-{[(3R)-1-(2-hydroxyethyl)pyrrolidin-3-yl]oxy}-2H-chromen-2-one] | < 0.1 | < 300 | **** (fold increase between >1.5 and ≤1.65) |  |
| 223 to 225 °C | Cc1cn2cc(-c3cc4c(F)cc(N5CCCN(C)CC5)cc4oc3=O)nc2c(C)n1 [Compound 614, 3-(6,8-dimethylimidazo[1,2-a]pyrazin-2-yl)-5-fluoro-7-(4-methyl-1,4-diazepan-1-yl)-2H-chromen-2-one] | < 0.1 | < 300 | ***** (fold increase >1.65) |  |
| 162 to 165 °C | Cc1cn2cc(-c3cc4ccc(N5CCN[C@@H](C)C5)cc4oc3=O)cc2c(C)n1 [Compound 680, 3-(1,3-dimethylpyrrolo[1,2-a]pyrazin-7-yl)-7-[(3S)-3-methylpiperazin-1-yl]-2H-chromen-2-one] | < 0.1 | < 300 | **** (fold increase between >1.5 and ≤1.65) |  |
| 236 to 240 °C | COc1cccn2cc(-c3cc4ccc(N5CCNCC5)cc4oc3=O)nc12 [Compound 402, 3-(8-methoxyimidazo[1,2-a]pyridin-2-yl)-7-(piperazin-1-yl)-2H-chromen-2-one] | 3 to 30 |  | * (maximum fold increase of ≤1.2) |  |
| 146 to 150 °C | Cc1cn2cc(-c3cc4ccc(N5C[C@H]6CN(C)C[C@H]6C5)cc4oc3=O)cc2c(C)n1 [Compound 756, 3-(1,3-dimethylpyrrolo[1,2-a]pyrazin-7-yl)-7-[(3aR,6aS)-5-methylhexahydropyrrolo[3,4-c]pyrrol-2(1H)-yl]-2H-chromen-2-one] | < 0.1 |  | *** (fold increase between >1.35 and ≤1.5) |  |
| 170 to 173 °C | O=c1oc2cc(N3CCCNCC3)ccc2cc1-c1cn2cccc(Cl)c2n1 [Compound 212, 3-(8-chloroimidazo[1,2-a]pyridin-2-yl)-7-(1,4-diazepan-1-yl)-2H-chromen-2-one] | 0.3 to 1 | 300 to 1000 | **** (fold increase between >1.5 and ≤1.65) |  |
| 155 to 158 °C | COc1cccc(-c2cc3ccc(N4CCCN(C)CC4)cc3oc2=O)n1 [Compound 359, 3-(6-methoxypyridin-2-yl)-7-(4-methyl-1,4-diazepan-1-yl)-2H-chromen-2-one] | 3 to 30 |  | * (maximum fold increase of ≤1.2) |  |
| 228 to 230 °C | Cc1ccc2oc(-c3cc4ccc(N5CCN6CCC[C@H]6C5)cc4oc3=O)cc2n1 [Compound 722, 7-[(8aS)-hexahydropyrrolo[1,2-a]pyrazin-2(1H)-yl]-3-(5-methylfuro[3,2-b]pyridin-2-yl)-2H-chromen-2-one] | 1 to 3 |  | * (maximum fold increase of ≤1.2) |  |
| 273 to 275 °C | Cc1cn2cc(-c3cc4ccc(N5C[C@H](O)[C@@H](N6CCCC6)C5)cc4oc3=O)nc2c(C)n1 [Compound 739, 3-(6,8-dimethylimidazo[1,2-a]pyrazin-2-yl)-7-[(3′S,4′S)-4′-hydroxy-1,3′-bipyrrolidin-1′-yl]-2H-chromen-2-one] | < 0.1 | < 300 | **** (fold increase between >1.5 and ≤1.65) |  |
| 239 to 249 °C | Cc1cccc2nc(-c3cc4ccc(N5CCNCC5)cc4oc3=O)cn12 [Compound 132, 3-(5-methylimidazo[1,2-a]pyridin-2-yl)-7-(piperazin-1-yl)-2H-chromen-2-one] | 1 to 3 |  | * (maximum fold increase of ≤1.2) |  |
| 140 to 143 °C | COc1ccc(-c2cc3ccc(N4CCN[C@@H](C)C4)cc3oc2=O)cc1OC [Compound 383, 3-(3,4-dimethoxyphenyl)-7-[(3S)-3-methylpiperazin-1-yl]-2H-chromen-2-one] | 0.1 to 0.3 | 1000 to 3000 | **** (fold increase between >1.5 and ≤1.65) |  |
| 109 to 111 °C | C[C@H]1CN(c2ccc3cc(-c4ccc(F)cc4Cl)c(=O)oc3c2)CCN1 [Compound 510, 3-(2-chloro-4-fluorophenyl)-7-[(3S)-3-methylpiperazin-1-yl]-2H-chromen-2-one] | 3 to 30 |  | * (maximum fold increase of ≤1.2) |  |
| 275 to 280 °C | Cc1cn2cc(-c3cc4ccc(N5CCN(C(C)C)CC5)cc4oc3=O)nc2cn1 [Compound 833, 3-(6-methylimidazo[1,2-a]pyrazin-2-yl)-7-[4-(propan-2-yl)piperazin-1-yl]-2H-chromen-2-one] | < 0.1 | < 300 | ***** (fold increase >1.65) |  |
| 202 to 206 °C | O=c1oc2cc(N3CCNCC3)ccc2cc1-c1cc(F)cc(F)c1 [Compound 291, 3-(3,5-difluorophenyl)-7-(piperazin-1-yl)-2H-chromen-2-one] | 0.3 to 1 |  | * (maximum fold increase of ≤1.2) |  |
| 111 to 113 °C | COc1ccc(-c2cc3ccc(N4C[C@@H](C)N[C@@H](C)C4)cc3oc2=O)cc1C [Compound 543, 7-[(3R,5S)-3,5-dimethylpiperazin-1-yl]-3-(4-methoxy-3-methylphenyl)-2H-chromen-2-one] | 1 to 3 |  | * (maximum fold increase of ≤1.2) |  |
| 260 to 262 °C | C[C@H]1CN(c2ccc3cc(-c4cn5cc(Cl)cnc5n4)c(=O)oc3c2)CCN1 [Compound 376, 3-(6-chloroimidazo[1,2-a]pyrimidin-2-yl)-7-[(3S)-3-methylpiperazin-1-yl]-2H-chromen-2-one] | 1 to 3 |  | * (maximum fold increase of ≤1.2) |  |
| 231 to 233 °C | C[C@@H]1CN(c2ccc3cc(C(=O)Nc4ccccc4)c(=O)oc3c2)C[C@H](C)N1 [Compound 30, 7-[(3R,5S)-3,5-dimethylpiperazin-1-yl]-2-oxo-N-phenyl-2H-chromene-3-carboxamide] | 1 to 3 |  | * (maximum fold increase of ≤1.2) |  |
| 236 to 239 °C | Cc1cn2cc(-c3cc4ccc(N5CC6CC5CN6)cc4oc3=O)cc2c(C)n1 (stereo not drawn) [Compound 783, 7-(2,5-diazabicyclo[2.2.1]hept-2-yl)-3-(1,3-dimethylpyrrolo[1,2-a]pyrazin-7-yl)-2H-chromen-2-one] | < 0.1 |  | *** (fold increase between >1.35 and ≤1.5) |  |
| 254 to 264 °C | C[C@@H]1CN(c2ccc3cc(-c4cn5cc(C6CC6)cc(F)c5n4)c(=O)oc3c2)CCN1 [Compound 503, 3-(6-cyclopropyl-8-fluoroimidazo[1,2-a]pyridin-2-yl)-7-[(3R)-3-methylpiperazin-1-yl]-2H-chromen-2-one] | 0.3 to 1 |  | * (maximum fold increase of ≤1.2) |  |
| 224 to 226 °C | Cc1cccn2cc(-c3cc4ccc(N5CCN(C)CC5)cc4oc3=O)nc12 [Compound 84, 3-(8-methylimidazo[1,2-a]pyridin-2-yl)-7-(4-methylpiperazin-1-yl)-2H-chromen-2-one] | 0.3 to 1 | 1000 to 3000 | *** (fold increase between >1.35 and ≤1.5) |  |
| 226 to 233 °C | Cc1ccn2cc(-c3cc4ccc(N5CCNC6(CCC6)C5)cc4oc3=O)nc2c1 [Compound 595, 7-(5,8-diazaspiro[3.5]non-8-yl)-3-(7-methylimidazo[1,2-a]pyridin-2-yl)-2H-chromen-2-one] | 0.3 to 1 |  | ** (fold increase between >1.2 and ≤1.35) |  |
| 248 to 250 °C | Cc1cn2cc(-c3cc4c(F)cc(N5CCCNCC5)cc4oc3=O)nc2c(C)n1 [Compound 608, 7-(1,4-diazepan-1-yl)-3-(6,8-dimethylimidazo[1,2-a]pyrazin-2-yl)-5-fluoro-2H-chromen-2-one] | < 0.1 | < 300 | ***** (fold increase >1.65) |  |

| SMILES | melting point | EC (1.5-fold) [1, 2] [µM] | EC1.5x (concentration giving 1.5-fold Smn protein increase) (Smn protein) [nM] | maximum fold (Fold) increase of Smn protein (Smn protein) | EC (1.5-fold) ([1]; 24 h) [µM] |
| --- | --- | --- | --- | --- | --- |
| Cc1cccn2cc(-c3cc4ccc(N5CCN6CCC5CC6)cc4oc3=O)nc12 [Compound 505, 7-(1,4-diazabicyclo[3.2.2]non-4-yl)-3-(8-methylimidazo[1,2-a]pyridin-2-yl)-2H-chromen-2-one] | 278 °C (dec.) |  |  | * (maximum fold increase of ≤1.2) | 3 to 30 |
| O=c1oc2cc(N3CCNCC3)ccc2cc1-c1cccs1 [Compound 363, 7-(piperazin-1-yl)-3-(thiophen-2-yl)-2H-chromen-2-one] | 193 to 195 °C |  |  | ** (fold increase between >1.2 and ≤1.35) | 1 to 3 |
